We go through 20 compounds from patent publication US11202743B2, “Personal care compositions comprising fatty acid amide derivatives” (Conopco, Inc., priority 2016, dated 2021).

For series [1], the target named is recombinant human FAAH enzyme (Homo sapiens (Human), UniProt O00519). In words: FAAH inhibition assay (Cayman Chemicals kit, AMC-arachidonoyl amide hydrolysis, fluorescence). Format: biochemical. As for the experimental part:
The ability of the compounds according to some embodiments of the present invention to inhibit FAAH was determined according to the methods disclosed a commercially available kit from Cayman Chemicals (Cayman Cat. No. 10005196). The kit utilizes recombinant human FAAH enzyme which hydrolyzes AMC-arachidonoyl amide resulting in the release of the fluorescent product, 7-amino-4-methylcoumarin (AMC). The fluorophore was detected via fluorescence, using an excitation wavelength of 340-360 nm and an emission wavelength of 450-465 nm. The assay was followed as described in the kit manual, which can be found on the webpage of Cayman Chemicals.

A further series addresses human CB1 receptor (Homo sapiens (Human), UniProt P21554). Put plainly: CB1 receptor binding assay, displacement of 3H CP-55,940 from membrane preparation. As to conditions: inhibition of 3H CP-55,940 binding (1 nM), human CB1 membranes. As for the experimental part:
(§1) The ability of the compounds according to some embodiments of the present invention to inhibit a radiolabeled cannabinoid ligand, CP-55,940, [Side chain-2,3,4(N)-3H(N)]-(Perkin-Elmer Cat. # NET1051) to either the human CB1 receptor or CB2 receptor was determined according to the manufacturer's instructions in the commercially available membrane preparations from Perkin Elmer (Cat Nos. RBHCB1M400UA and RBXCB2M400UA). Briefly, pre-treatment of the glass fiber membrane of a Matrix 96 well GFC filtration microtiter plate was done in order to help reduce non-specific binding of the radioligand to the GFC membrane. This was done by adding 150 μl of 0.5% polyethylimine (PEI) to each well and letting this remain in the plate for at least 4 hours before using it to terminate the binding reaction. The actual binding reaction was performed in a polypropylene (PP) round bottom 96-well microtiter plate. Briefly, 55 μl of assay buffer (50 mM TRIS pH7.4, 2.5 mM EGTA, 5 mM MgCl2, 120 mM NaCl, 0.1% Fatty acid free BSA) was added to each well, followed by 20 μl of a 0.4 mg/ml CB1 or CB2 membrane suspension (8 μg membrane per well). To initiate the reaction, 20 μl of 5 nM ^3H CP-55,940 (1 nM final concentration) was added to each well. Nonspecific binding was defined in the presence of 20 μM unlabeled WIN 55212 (Sigma cat. W-102). ACEA was routinely used as a positive control for both assays. The plate was shaken on an orbital plate shaker and the binding reaction proceeded until equilibrium was reached after 3 hours at room temperature. Using a Multiscreen vacuum manifold, the PEI was filtered through the GFC filter plate. The binding reaction in the PP plate was mixed by aspirating the reaction contents of each well and dispensing back into the plate. This was repeated 4 times and then 75 μl of the reaction mixture was transferred to the GFC plate. This procedure could be done row by row with the use of a multichannel pipette, or all at once if using automation. Once the entire content of the PP plate was transferred to the GFC plate, the binding reactions were terminated by filtering thru the GFC plate. The filter plate was then washed by adding 100 μl ice-cold wash buffer 50 mM TRIS pH 7.4, 2.5 mM EGTA, 5 mM MgCl2, 120 mM NaCl, 2% Fatty acid free BSA) to each well and filtering through. This was repeated 8 times, after which the filter mat was allowed to dry. Once the filter mat was dry, 50 μl of Microscint scintillation cocktail was added to each well, allowed to sit for 15-20 min, and the plate read on a Microbeta2 scintillation counter.
(§2) The lower the IC50 value, the higher the binding.
A general note: Loss of bound radioactivity is the signal in a displacement assay; it reports binding, not function.

Another series deals with human CB2 receptor (Homo sapiens (Human), UniProt P34972). Put plainly: CB2 receptor binding assay, displacement of 3H CP-55,940 from membrane preparation. As to conditions: inhibition of 3H CP-55,940 binding (1 nM), human CB2 membranes. Here is the method: as §1, §2
The nature of series [2]: Effect on solubility of 12 HSA (visual observation). Format: physicochemical.
The subject of series [3] is serotonin-induced scratches (itch). The following applies: mice; cited from earlier work.
Where [4] appears, read: 41.18% Tween 20, 29.41% 12-HSA, 29.41% compound.
The mark [5] stands for this setting: 41.18% Tween 60, 29.41% 12-HSA, 29.41% compound.
Setting [6] is: 48.28% Tween 20, 34.48% 12-HSA, 17.24% compound.
[7] abbreviates: 41.67% Tween 60, 41.67% 12-HSA, 16.67% compound.

Sequence of human CB2 receptor (P34972 whole entry): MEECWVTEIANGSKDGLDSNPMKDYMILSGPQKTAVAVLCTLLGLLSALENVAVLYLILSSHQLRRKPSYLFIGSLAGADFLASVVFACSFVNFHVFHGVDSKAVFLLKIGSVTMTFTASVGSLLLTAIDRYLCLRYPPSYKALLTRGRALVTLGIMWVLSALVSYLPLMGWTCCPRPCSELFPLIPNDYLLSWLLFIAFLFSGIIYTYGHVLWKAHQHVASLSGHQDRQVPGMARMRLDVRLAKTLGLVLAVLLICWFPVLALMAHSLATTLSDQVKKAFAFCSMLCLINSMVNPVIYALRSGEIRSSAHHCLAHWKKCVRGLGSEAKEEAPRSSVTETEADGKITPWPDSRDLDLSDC
Sequence of human CB1 receptor (P21554 whole entry): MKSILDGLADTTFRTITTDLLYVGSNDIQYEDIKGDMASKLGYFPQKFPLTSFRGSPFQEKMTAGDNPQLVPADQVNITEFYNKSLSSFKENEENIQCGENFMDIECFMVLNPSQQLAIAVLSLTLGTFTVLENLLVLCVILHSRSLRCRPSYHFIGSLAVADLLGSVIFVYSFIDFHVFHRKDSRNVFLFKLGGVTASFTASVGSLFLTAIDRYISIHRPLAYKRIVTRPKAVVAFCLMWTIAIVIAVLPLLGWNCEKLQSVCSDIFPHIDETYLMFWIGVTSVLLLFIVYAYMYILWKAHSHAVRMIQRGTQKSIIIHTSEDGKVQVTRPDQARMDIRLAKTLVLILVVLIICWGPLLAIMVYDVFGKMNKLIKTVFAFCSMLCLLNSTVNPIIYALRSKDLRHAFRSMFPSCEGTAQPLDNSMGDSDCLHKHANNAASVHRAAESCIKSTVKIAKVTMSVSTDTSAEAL
Sequence of recombinant human FAAH enzyme (O00519 whole entry): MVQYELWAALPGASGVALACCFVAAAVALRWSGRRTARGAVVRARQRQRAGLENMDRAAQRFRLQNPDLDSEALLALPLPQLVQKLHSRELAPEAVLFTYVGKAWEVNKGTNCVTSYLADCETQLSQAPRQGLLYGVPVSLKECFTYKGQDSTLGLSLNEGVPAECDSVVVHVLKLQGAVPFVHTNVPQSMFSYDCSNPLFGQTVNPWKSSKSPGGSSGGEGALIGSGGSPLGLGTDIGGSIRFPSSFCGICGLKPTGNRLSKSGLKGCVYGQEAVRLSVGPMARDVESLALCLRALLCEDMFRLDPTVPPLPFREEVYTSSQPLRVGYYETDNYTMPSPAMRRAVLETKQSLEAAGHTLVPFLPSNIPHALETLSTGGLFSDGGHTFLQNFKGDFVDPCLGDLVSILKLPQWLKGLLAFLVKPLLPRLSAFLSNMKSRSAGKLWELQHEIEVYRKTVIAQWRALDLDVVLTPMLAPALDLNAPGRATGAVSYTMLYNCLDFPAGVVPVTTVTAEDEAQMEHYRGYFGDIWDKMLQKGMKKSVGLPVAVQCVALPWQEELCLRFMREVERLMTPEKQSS

In the case of “conjugated linoleyl glycinate acid [Compound 1]”, in series [1], the IC50 turned out to be 2.6 µM. Also, the “CB1 IC50” value at human CB1 receptor is listed as “No binding”. Also, at human CB2 receptor, the “CB2 IC50” value is reported as “No binding”.

In the case of `CCCCCCC(O)C/C=C\CCCCCCCC(=O)NC(C)C(=O)O` (centres unmarked) [Compound 12], in series [1], the IC50 is 42 µM. Moreover, the “CB1 IC50” value at human CB1 receptor is recorded as “no binding activities”. The “CB2 IC50” value at human CB2 receptor is recorded as “no binding activities”. The Observation entry in series [2] (setting [4]) and in series [2] (setting [5]) was “translucent” each time.

Regarding `CCCCC/C=C\C=C\CCCCCCCCC(=O)NC(C)C(=O)O` (centres unmarked) [Compound 2], in series [1], the IC50 came out at 2.6 µM. At human CB1 receptor, the “CB1 IC50” value is “No binding”. Also, the “CB2 IC50” value at human CB2 receptor is reported as “No binding”.

Turning to `CCCCCC/C=C/C=C/CCCCCCCC(=O)NC(CC(=O)O)Cc1c[nH]cn1` (centres unmarked) [Compound 10], the half-maximal inhibitory concentration (IC50) turned out to be 13 µM in series [1] and 38 µM at human CB2 receptor.

For the compound `CCCCCC/C=C/C=C/CCCCCCCC(=O)NCCC(=O)O` [Compound 3], the half-maximal inhibitory concentration (IC50) in series [1] was found to be 2.8 µM; on human CB1 receptor it was 22 µM; at human CB2 receptor, 26 µM. Also, the Observation result in series [2] (setting [6]) is “translucent”.

With `CCCCCCC(O)C/C=C\CCCCCCCC(=O)NCC(=O)O` (centres unmarked) [Compound 14], in series [1], the concentration for half-maximal inhibition (IC50) was found to be 26 µM. At human CB1 receptor, the “CB1 IC50” value is on record as “no binding activities”. Further, the “CB2 IC50” value on human CB2 receptor is “no binding activities”. The Observation entry in series [2] (setting [4]) and in series [2] (setting [5]) was “translucent” throughout.

`CCCCCCC(O)CCCCCCCCCCC(=O)NCC(=O)O` (centres unmarked) [Compound 18]: the IC50 in series [1] is 46 µM. At human CB1 receptor, the “CB1 IC50” value is on record as “no binding activities”. Moreover, the “CB2 IC50” value at human CB2 receptor is on record as “no binding activities”. For the same compound, the Observation entry in series [2] (48.39% Tween 60, 48.39% 12-HSA, 3.23% compound) is “translucent”.

As for `CCCCC/C=C\C=C\CCCCCCCCC(=O)NCC(=O)O` [Compound 6], the IC50 in series [1] turned out to be 3.5 µM. Moreover, the “CB1 IC50” value at human CB1 receptor is listed as “No binding”. For the same compound, on human CB2 receptor, the “CB2 IC50” value is “No binding”.

Take `CCCCCCC(O)CCCCCCCCCCC(=O)NC(CC(=O)O)C(=O)O` (centres unmarked) [Compound 16]: the Observation entry in series [2] (45.16% Tween 60, 38.71% 12-HSA, 16.13% compound) is recorded as “translucent”.

With `CCCCCCC(O)C/C=C\CCCCCCCC(=O)NC(C(=O)O)C(C)CC` (centres unmarked) [Compound 13], the Observation result in series [2] (setting [5]) is given as “translucent”.

Regarding `CCCCC/C=C\C=C\CCCCCCCCC(=O)NCCC(=O)O` [Compound 4], the IC50 in series [1] was determined as 2.8 µM; at human CB1 receptor it was 22 µM; at human CB2 receptor, 26 µM.

Turning to `CCCCCCC(O)CCCCCCCCCCC(=O)NC(CCC(=O)O)C(=O)O` (centres unmarked) [Compound 19], the Observation entry in series [2] (50.00% Tween 60, 35.71% 12-HSA, 14.29% compound) is given as “translucent”.

On to `NC(=O)c1cccc(-c2cccc(OC(=O)NC3CCCCC3)c2)c1` [URB597], for which the “Serotonin-induced scratches (itch)” value in series [3] is listed as “attenuate”.

As for `CCCCCC/C=C/C=C\CCCCCCCC(=O)NCC(=O)O` [Compound 5], the half-maximal inhibitory concentration (IC50) in series [1] was 3.5 µM. Also, on human CB1 receptor, the “CB1 IC50” value is reported as “No binding”. Moreover, the “CB2 IC50” value on human CB2 receptor is recorded as “No binding”. Further, the Observation entry in series [2] (33.33% Tween 20, 41.67% 12-HSA, […] compound) is given as “translucent”; in series [2] (40% Tween 20, 30% 12-HSA, 10% compound), “translucent”; in series [2] (40.00% Tween 20, 40% 12-HSA, 20% compound), “translucent”; in series [2] (setting [6]), “translucent”; in series [2] (48.28% Tween 60, 34.48% 12-HSA, 17.24% compound) it was “translucent”.

On to `CCCCC/C=C\C=C\CCCCCCCCC(=O)NCC(Cc1c[nH]cn1)C(=O)O` (centres unmarked) [Compound 9], for which the IC50 came out at 13 µM in series [1] and 38 µM at human CB2 receptor.

Turning to `CCCCC/C=C\C=C\CCCCCCCCC(=O)NC(CCC(=O)O)C(=O)O` (centres unmarked) [Compound 11], in series [1], the “FAAH IC50” value is reported as “No binding”. Besides, the “CB1 IC50” value on human CB1 receptor is listed as “No binding”. Besides, the “CB2 IC50” value at human CB2 receptor is “No binding”. Moreover, the Observation result was “translucent/clear” in series [2] (setting [5]) and “translucent” in series [2] (setting [7]).

Turning to `CCCCCCC(O)CCCCCCCCCCC(=O)NC(C)C(=O)O` (centres unmarked) [Compound 17], in series [1], the IC50 came to 40 µM. Further, at human CB1 receptor, the “CB1 IC50” value is “no binding activities”. The “CB2 IC50” value on human CB2 receptor was “no binding activities”.

Turning to `CCCCCCC(O)C/C=C\CCCCCCCC(=O)NC(CCC(=O)O)C(=O)O` (centres unmarked) [Compound 15], the Observation entry in series [2] (setting [5]) and in series [2] (setting [7]) was “translucent” in each case.

For `CCCCCC/C=C/C=C\CCCCCCCC(=O)NC(Cc1ccccc1)C(=O)O` (centres unmarked) [Compound 7], the half-inhibitory concentration (IC50) in series [1] turned out to be 11 µM. In addition, on human CB1 receptor, the “CB1 IC50” value is given as “No binding”. In addition, the “CB2 IC50” value at human CB2 receptor is “No binding”.

As to `CCCCC/C=C\C=C\CCCCCCCCC(=O)NC(Cc1ccccc1)C(=O)O` (centres unmarked) [Compound 8], the IC50 in series [1] was 11 µM. Besides, on human CB1 receptor, the “CB1 IC50” value is on record as “No binding”. For the same compound, the “CB2 IC50” value on human CB2 receptor was “No binding”.

The IC50 is the midpoint of a concentration-inhibition curve.
